According to US8741806B2, “Herbicides” (Syngenta Limited, priority 2009, dated 2014):

Key:
Type in all cases: in vivo
[1] = system: Alopecurus myosuroides (ALOMY); assay: Example A post-emergence herbicidal activity, glasshouse pot test; details: Rate 15 g/ha, evaluated 15 days later, 100=total damage to plant, 0=no damage to plant
Description: (§1) Seeds of a variety of test species were sown in standard soil in pots. After cultivation for one day (pre-emergence) or after 10 days cultivation (post-emergence) under controlled conditions in a glasshouse, the plants were sprayed with an aqueous spray solution derived from the formulation of the technical active ingredient of formula I in 0.6 ml acetone and 45 ml formulation solution containing 10.6% Emulsogen EL (Registry number 61791-12-6), 42.2% N-methylpyrrolidone, 42.2% dipropylene glycol monomethyl ether (Registry number 34590-94-8) and 0.2% X-77 (Registry number 11097-66-8). The test plants were then grown in a greenhouse under optimum conditions until, 15 days later for post-emergence and 20 days for pre-emergence, the test was evaluated (100=total damage to plant; 0=no damage to plant). The compound of Example 1-8-a-1 from WO99/48869 was also sprayed for comparison. Alopecurus myosuroides (ALOMY), Avena fatua (AVEFA), Lolium perenne (LOLPE), Setaria faberi (SETFA), Digitaria sanguinalis (DIGSA), Echinochloa crus-galli (ECHCG) and Sorghum bicolor (SORVU) Post-Emergence Activity

[2] = system: Echinochloa crus-galli (ECHCG); assay: as above; details: Rate 15 g/ha, evaluated 15 days later, 100=total damage to plant, 0=no damage to plant
Description: as §1

[3] = system: Setaria faberi (SETFA); assay: as above; details: Rate 15 g/ha, evaluated 15 days later, 100=total damage to plant, 0=no damage to plant
Description: as §1

[4] = system: Sorghum bicolor (SORVU); assay: as above; details: Rate 15 g/ha, evaluated 15 days later, 100=total damage to plant, 0=no damage to plant
Description: as §1

[5] = system: Digitaria sanguinalis (DIGSA); assay: as above; details: Rate 15 g/ha, evaluated 15 days later, 100=total damage to plant, 0=no damage to plant
Description: as §1

[6] = system: Avena fatua (AVEFA); assay: as above; details: Rate 15 g/ha, evaluated 15 days later, 100=total damage to plant, 0=no damage to plant
Description: as §1

[7] = system: Alopecurus myosuroides (ALOMY); assay: Example A pre-emergence herbicidal activity, glasshouse pot test; details: Rate 250 g/ha, evaluated 20 days later, 100=total damage to plant, 0=no damage to plant
Description: as §1, with “Pre-Emergence” for “Post-Emergence”

[8] = system: Echinochloa crus-galli (ECHCG); assay: as above; details: Rate 250 g/ha, evaluated 20 days later, 100=total damage to plant, 0=no damage to plant
Description: as §1, with “Pre-Emergence” for “Post-Emergence”

[9] = system: Setaria faberi (SETFA); assay: as above; details: Rate 250 g/ha, evaluated 20 days later, 100=total damage to plant, 0=no damage to plant
Description: as §1, with “Pre-Emergence” for “Post-Emergence”

[10] = system: Lolium perenne (LOLPE); assay: as above; details: Rate 250 g/ha, evaluated 20 days later, 100=total damage to plant, 0=no damage to plant
Description: as §1, with “Pre-Emergence” for “Post-Emergence”

[11] = system: Digitaria sanguinalis (DIGSA); assay: as above; details: Rate 250 g/ha, evaluated 20 days later, 100=total damage to plant, 0=no damage to plant
Description: as §1, with “Pre-Emergence” for “Post-Emergence”

[12] = system: Avena fatua (AVEFA); assay: as above; details: Rate 250 g/ha, evaluated 20 days later, 100=total damage to plant, 0=no damage to plant
Description: as §1, with “Pre-Emergence” for “Post-Emergence”

[13] = system: Alopecurus myosuroides (ALOMY); assay: Example B pre-emergence herbicidal activity, glasshouse pot test; details: 312 h, rate 250 g/ha, evaluated after 13 days, scale 0-100, read-out: Pre-emergence activity ALOMY (100=total damage to plant; 0=no damage to plant)
Method in brief: (§2)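 Pots were sprayed one day after sowing with the active ingredient in acetone/water (50:50) containing 0.5% Tween 20. Plants were kept in a glasshouse at 24/16° C day/night, 14 h light, 65% humidity. Damage was scored 13 days later (0 none to 100 total).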

[14] = system: Echinochloa crus-galli (ECHCG); assay: as above; details: 312 h, rate 250 g/ha, evaluated after 13 days, scale 0-100, read-out: Pre-emergence activity ECHCG (100=total damage to plant; 0=no damage to plant)
Method in brief: as §2

[15] = system: Setaria faberi (SETFA); assay: as above; details: rate 250 g/ha, evaluated after 13 days, scale 0-100
Method in brief: as §2

[16] = system: Avena fatua (AVEFA); assay: as above; details: 312 h, rate 250 g/ha, evaluated after 13 days, scale 0-100, read-out: Pre-emergence activity AVEFA (100=total damage to plant; 0=no damage to plant)
Method in brief: as §2

[17] = system: Alopecurus myosuroides (ALOMY); assay: Example B post-emergence herbicidal activity, glasshouse pot test; details: 312 h, rate 250 g/ha, evaluated after 13 days, scale 0-100, read-out: Post-emergence activity ALOMY (100=total damage to plant; 0=no damage to plant)
Method in brief: (§3)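 Seeds sown in standard soil, grown 8 days in glasshouse (24/16 °C day/night, 14 h light, 65% humidity), then sprayed post-emergence with compound in acetone/water (50:50) containing 0.5% Tween 20. Damage scored visually after 13 days on a 0–100 scale (100 = total damage).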

[18] = system: Echinochloa crus-galli (ECHCG); assay: as above; details: 312 h, rate 250 g/ha, evaluated after 13 days, scale 0-100, read-out: Post-emergence activity ECHCG (100=total damage to plant; 0=no damage to plant)
Method in brief: as §3

[19] = system: Setaria faberi (SETFA); assay: as above; details: rate 250 g/ha, evaluated after 13 days, scale 0-100
Method in brief: as §3

[20] = system: Avena fatua (AVEFA); assay: as above; details: 312 h, rate 250 g/ha, evaluated after 13 days, scale 0-100, read-out: Post-emergence activity AVEFA (100=total damage to plant; 0=no damage to plant)
Method in brief: as §3

[21] = system: Lolium perenne (LOLPE); assay: Example B pre-emergence herbicidal activity, glasshouse pot test; details: 312 h, rate 250 g/ha, evaluated after 13 days, scale 0-100, read-out: Pre-emergence activity LOLPE (100=total damage to plant; 0=no damage to plant)
Method in brief: as §2

[22] = system: Lolium perenne (LOLPE); assay: Example B post-emergence herbicidal activity, glasshouse pot test; details: 312 h, rate 250 g/ha, evaluated after 13 days, scale 0-100, read-out: Post-emergence activity LOLPE (100=total damage to plant; 0=no damage to plant)
Method in brief: as §3

| Compound | Post-Emergence Activity ALOMY (damage to plant) [1] | Post-Emergence Activity ECHCG (damage to plant) [2] | Post-Emergence Activity SETFA (damage to plant) [3] | Post-Emergence Activity SORVU (damage to plant) [4] | Post-Emergence Activity DIGSA (damage to plant) [5] | Post-Emergence Activity AVEFA (damage to plant) [6] | Pre-Emergence Activity ALOMY (damage to plant) [7] | Pre-Emergence Activity ECHCG (damage to plant) [8] | Pre-Emergence Activity SETFA (damage to plant) [9] | Pre-Emergence Activity LOLPE (damage to plant) [10] | Pre-Emergence Activity DIGSA (damage to plant) [11] | Pre-Emergence Activity AVEFA (damage to plant) [12] | pest or weed control at 250 g/ha [13] | pest or weed control at 250 g/ha [14] | Pre-emergence activity SETFA (100=total damage to plant; 0=no damage to plant) [15] | pest or weed control at 250 g/ha [16] | pest or weed control at 250 g/ha [17] | pest or weed control at 250 g/ha [18] | Post-emergence activity SETFA (100=total damage to plant; 0=no damage to plant) [19] | pest or weed control at 250 g/ha [20] | also measured |
| --- | --- | --- | --- | --- | --- | --- | --- | --- | --- | --- | --- | --- | --- | --- | --- | --- | --- | --- | --- | --- | --- |
| CCc1ccc(-c2ccc(Cl)cc2)cc1C1=C(O)CCCC1=O [Compound T2] | 0 | 90 | 80 | 70 | 80 | 0 | 60 | 100 | 80 | 70 | 80 | 70 | 40% | 100% | 100 | 40% | 90% | 100% | 100 | 80% | – |
| Cc1ccc(-c2ccc(Cl)cc2)cc1C1=C(O)C(C)(C)CCC1=O [Example 1-8-a-1 from WO99/48869, reference compound] | 0 | 70 | 20 | 0 | 20 | 0 | 20 | 90 | 30 | 20 | 70 | 0 | – | – | – | – | – | – | – | – | – |
| CCc1ccc(-c2ccc(Cl)cc2)cc1C1=C(O)C(C)(C)CCC1=O [Compound T1, 2-(4′-chloro-4-ethylbiphen-3-yl)-4,4-dimethyl-1,3-cyclohexanedione] | 0 | 70 | 90 | 50 | 80 | 10 | 60 | 90 | 100 | 90 | – | 70 | 50% | 100% | 100 | 0% | 90% | 100% | 100 | 40% | – |
| CCc1ccc(-c2ccc(Cl)cc2)cc1C1=C(O)CC(C)(C)CC1=O [Compound T3] | 50 | 70 | 70 | 70 | 70 | 20 | 90 | 100 | 80 | 100 | 100 | 50 | 60% | 100% | 100 | 20% | 100% | 100% | 100 | 20% | – |
| CCc1ccc(-c2ccc(Cl)c(Cl)c2F)cc1C1=C(O)C(C)(C)CCC1=O [Compound T17] | – | – | – | – | – | – | – | – | – | – | – | – | 0% | 80% | – | 0% | 0% | 90% | – | 0% | pest or weed control at 250 g/ha [21]: 0%; pest or weed control at 250 g/ha [22]: 40% |
| CCc1ccc(-c2ccc(Cl)c(F)c2)cc1C1=C(O)C(C)(C)CC(C)(C)C1=O [Compound T64] | – | – | – | – | – | – | – | – | – | – | – | – | 30% | 70% | – | 10% | 50% | 100% | – | 80% | pest or weed control at 250 g/ha [21]: 60%; pest or weed control at 250 g/ha [22]: 80% |
| CCc1ccc(-c2ccc(Cl)c(OC)c2)cc1C1=C(O)C(C)(C)CC(C)(C)C1=O [Compound T66] | – | – | – | – | – | – | – | – | – | – | – | – | 10% | 90% | – | 0% | 30% | 100% | – | 50% | pest or weed control at 250 g/ha [21]: 30%; pest or weed control at 250 g/ha [22]: 30% |
